PubChem BioAssay (NCI)
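Values below derive from 48-hour exposures of cells grown in 96-well plates, with endpoints linearly interpolated between the two concentrations bracketing the appropriate inhibition level. GI50: concentration for 50% inhibition of growth. TGI denotes the concentration required for complete inhibition of growth.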

How the values were obtained:
Experiment in all cases: growth of human tumour cells (NCI), 48 h
[1] = system: MOLT-4 leukemia
[2] = system: CCRF-CEM leukemia
[3] = system: SR leukemia
[4] = system: HOP-92 NSCLC
[5] = system: SN12C renal
[6] = system: SK-MEL-28 melanoma
[7] = system: UACC-257 melanoma
[8] = system: OVCAR-5 ovarian
[9] = system: MALME-3M melanoma
[10] = system: TK-10 renal

SMILES	TGI [1] [µM]	TGI [2] [µM]	TGI [3] [µM]	TGI [4] [µM]	TGI [5] [µM]	TGI [6] [µM]	TGI [7] [µM]	TGI [8] [µM]	TGI [9] [µM]	TGI [10] [µM]	GI50 [1] [µM]	GI50 [2] [µM]	GI50 [3] [µM]	GI50 [8] [µM]	GI50 [4] [µM]	GI50 [5] [µM]	GI50 [6] [µM]	GI50 [7] [µM]	GI50 [10] [µM]	GI50 [9] [µM]
O=C1c2ccccc2NC1(c1ccccc1)c1c(-c2ccccc2)[nH]c2ccccc12 (configuration not stated)	20.6	> 100	> 100	> 100	> 100	> 100	> 100													
CC1=C(C(=O)Nc2cc(=O)n(C)c(=O)n2C)C(c2ccc([N+](=O)[O-])cc2)C(C(=O)Nc2cc(=O)n(C)c(=O)n2C)=C(C)N1	> 100	> 100		85.7	> 100	> 100	> 100	> 100	> 100	> 100										
CC1(C)OB(O)OC1(C)C	> 100	> 100			> 100	> 100	> 100	> 100	> 100	> 100										
CN1C(c2ccccc2)CS(=O)(=O)CS1(=O)=O (configuration not stated)					> 100	> 100	> 100	> 100	> 100	> 100										
CN(C)CCNC(=O)c1cccc2c(Nc3ccc(S(N)(=O)=O)cc3)c3ccccc3nc12	> 100		> 100	7.27	3.9	3	9.83	6.56	3.88											
O=Cc1ccc(-c2ccc(-c3nc4ccccc4o3)cc2)s1	> 100	> 100	47.7	> 100	81.3	> 100	> 100	> 100		81.3	21.6	5.68	15.3	78.4	> 100	29.4	24.1	49.3	33.6	
COC(=O)c1c(O)c([N+](=O)[O-])cc2c1c1c(n2Cc2ccccc2)C(=O)c2ccccc2C1=O		> 100		63	65.7	> 100	> 100	66.7	46	> 100		15.8		28.6	8.08	25.5	34.9	41	18.7	23.4
O=C(/C=N/O)Nc1cc(Cl)c(Cl)cc1Cl	47.9	91.9		> 100	94.3	> 100	87.4	> 100	> 100	> 100										
Cc1ccc(NC(=O)C(=O)CC(=O)C2CCOC2=O)c(C)c1 (configuration not stated)		> 100		> 100	> 100	> 100	> 100	> 100	> 100	> 100										
CN(C)c1ncc(-c2ccc(C(F)(F)F)cc2)c(NC2CCCCCC2)n1	34.7	35.8			62.2	60.3	54	38.8	40.4	> 100	14.8	16.4		18.2		17.3	19.6	16.8	40.6	14.4
O=C(CC1(O)C(=O)Nc2ccccc21)c1ccco1 (configuration not stated)	> 100			> 100	> 100	> 100	> 100	> 100	> 100	> 100										
CC1=C(C(=O)NCc2ccccc2)C(c2ccc([N+](=O)[O-])cc2)C(C(=O)NCc2ccccc2)=C(C)N1				73.6	> 100	> 100	> 100	93.5	> 100	> 100										
CC(=O)C1C(=O)NC(=O)C1=O (configuration not stated)				> 100	> 100	> 100	> 100	> 100	> 100	> 100										
CS(=O)(=O)Nc1cccc(-c2cc(-c3ccccc3Cl)c(C#N)c(N)n2)c1	> 51.5	> 82.4		16	24.4	19.9	21.4	19.9	25	18.5	0.894	0.562		3.22	1.11	0.722	1.22	0.5	1.15	3.23
O/N=C1/C(=C/c2ccc(Oc3ccccc3)cc2)CCCC1C(NO)c1ccc(Oc2ccccc2)cc1 (configuration not stated)	33.2	61.2		56.3	96.7	> 100	> 100	> 100	> 100	> 100										
O=C(c1ccccc1)c1oc2ccc(Br)cc2c1-c1cnn(-c2ccccc2)c1	> 100	> 100		> 100	> 100	> 100	> 100	> 100	> 100											
COc1cc(O)c2c(c1)C(=O)C=C(Cl)C2=O	> 100	> 100		> 100		> 100	> 100	> 100	> 100	> 100										
Cc1cc2cn3c4ccc(O)cc4[nH]c(=O)c3c2cc1C		1.81	0.415	1.95		1.74	1.31	2.02		2.13		0.0418	0.0342	0.223	0.0723		0.0346	0.0416	0.667	
Cc1ccccc1C(=O)Oc1ccc(O)cc1	> 100	> 100			> 100		> 100	> 100	> 100	> 100										
COC(=O)Nc1nc2ccc(C(=O)c3ccc(N(C)C4COC4)cc3)cc2[nH]1	> 100	> 100	> 100	45.9	> 100	> 100	> 100	> 100		> 100	0.672	0.309	0.188	0.746	0.62	0.561	> 100	> 100	31.3	
CC(=O)O[C@H]1CCC2[C@@H]3CCC4=C(O)C(=O)C(C#N)C[C@]4(C)C3CC[C@@]21C (some centres not stated)	> 100	> 100		8.33	> 100	> 100	> 100	> 100	> 100	> 100										
NCCN.NCCN.O=C[O-].O=C[O-].[Co+3].[O-][Cl+3]([O-])([O-])[O-]	> 100	> 100	> 100	> 100	> 100	> 100	> 100	> 100		> 100	> 100	> 100	> 100	> 100	> 100	> 100	> 100	> 100	> 100	
COc1cc2c3c(n(CCCNCCCNCCCNCCCN)c(=O)c2cc1OC)-c1cc2c(cc1C3=O)OCO2	2.57	2.16		9.64	9.35	25.2	17.2	5.63	1.29	5.8	0.369	0.301		1.76	2.74	1.56	2.29	3.72	2.8	0.318
CC(C)C1CC2C(=O)N(c3ccccc3)C(=O)C2c2[nH]c3ccccc3c21 (configuration not stated)	> 100	54.3				> 100	> 100	> 100	> 100	97.4										
CCN1C2=NCCN2S(=O)(=O)c2ccccc21	> 100	> 100		> 100	> 100	> 100	> 100	> 100		> 100										
CN(CCc1ccccn1)c1nc(=[N+](C)C)ss1	> 100	> 100		> 100	> 100	> 100	> 100	> 100	> 100	> 100										
OC(COc1ccc(F)cc1)Cn1cnc2c(Cl)ncnc21 (configuration not stated)	> 100	> 100		> 100	> 100	> 100	> 100	> 100	> 100	> 100	32.5	50.8		> 100	> 100	> 100	> 100	46.8	63.3	33.6
CN(/N=C/c1cccc2cccnc12)c1ccc([N+](=O)[O-])cc1	> 100	> 100		> 100	> 100	> 100	> 100	> 100	> 100	> 100										
O=C(Cc1nc2ccccc2s1)C(=O)Nc1cccc(Cl)c1		> 100		> 100	> 100	> 100	> 100	> 100	> 100	> 100										
O=C(/C=C/C=C/c1c(C2CC2)nc2ccccc2c1-c1ccc(F)cc1)c1cccs1	> 100	> 100		8.6	> 100	> 100	6.22			32.9	1	1.37			1.83	2.25	3.57	1.97	4.58	
